Tested on: IgE antibodies from patients
Experiment: Wheat epitope mapping (2): overlapping 10-amino-acid peptide fragments shifted by one amino acid;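 as to Rank of partial sequence as epitope binding to IgE antibody: key = sequence deemed particularly important within the common 15-residue sequence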;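 as to epitope sequence binding to IgE antibody, rank (Key/Preferably/More preferably): key of grades: preferably = shorter partial sequence still acting as epitope; more preferably = sequence improving IgE binding; key = particularly important sequence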
Assay type: binding, human
Outline: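 Residual binding was banded as <30% none, 30–<50% poor, 50–<70% somewhat poor and ≥70% retained, relative to the parent overlapping sequence set to 100%. Values were chemiluminescent IgE signals from patient sera after subtracting secondary-antibody-only controls. The peptides were spot-synthesised 10-mers shifted by one amino acid.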

[1] = serum of patient P28 (WDEIA), sequence without X
[2] = serum of patient P34 (WDEIA), sequence without X
[3] = serum of patient P35 (WDEIA), sequence without X
[4] = serum of patient G9 (adult, general immediate type allergy to wheat), partial sequence
[5] = serum of patient P2 (WDEIA), partial sequence
[6] = serum of patient P25 (WDEIA), sequence without X

1200 (QQFPGQQQQ; REGION 1..9: note = epitope) [compound 1200]
Epitope sequence binding to IgE antibody, rank of the sequence [1]: Key

1635 (YNPD; REGION 1..4: note = epitope) [compound 1635]
Rank of partial sequence as epitope binding to IgE antibody (serum of patient P32 (WDEIA), sequence without X): Key

2684 (YKGPTL; REGION 1..6: note = epitope) [compound 2684]
Epitope sequence binding to IgE antibody, rank of the sequence (serum of patient P26 (WDEIA), partial sequence): Key

2541 (SSQVSFQPSQ; REGION 1..10: note = epitope) [compound 2541]
Epitope sequence binding to IgE antibody, rank of the sequence (serum of patient G7 (adult, general immediate type allergy to wheat), partial sequence): Preferably

1932 (QVPLVQQQ; REGION 1..8: note = epitope) [compound 1932]
epitope sequence binding to IgE antibody, rank (Key/Preferably/More preferably) (serum of patient P17 (WDEIA)): Preferably

1221 (PIQQQPQPF; REGION 1..9: note = epitope) [compound 1221]
Epitope sequence binding to IgE antibody, rank of the sequence (serum of patient P10 (WDEIA), sequence without X): Preferably

1800 (KELEALPK; REGION 1..8: note = epitope) [compound 1800]
epitope sequence binding to IgE antibody, rank (Key/Preferably/More preferably) (serum of patient P17 (WDEIA)): Key

1543 (QVPLVQQ; REGION 1..7: note = epitope) [compound 1543]
Rank of partial sequence as epitope binding to IgE antibody (serum of patient P21 (WDEIA), sequence without X): Preferably

2300 (DKRVIERFEK; REGION 1..10: note = epitope) [compound 2300]
Epitope sequence binding to IgE antibody, rank of the sequence (Key/Preferably/More preferably) (serum of patient G1 (adult, general immediate type allergy to wheat), sequence without X): Key

2726 (KIGG; REGION 1..4: note = epitope) [compound 2726]
Epitope sequence binding to IgE antibody, rank of the sequence (serum of patient P27 (WDEIA), partial sequence): Key

1460 (LQPQQPISQ; REGION 1..9: note = epitope) [compound 1460]
Rank of partial sequence as epitope binding to IgE antibody (serum of patient P24 (WDEIA), sequence without X): More preferably

1877 (TLQR; REGION 1..4: note = epitope) [compound 1877]
epitope sequence binding to IgE antibody, rank (Key/Preferably/More preferably) (serum of patient P31 (WDEIA)): Key

1758 (YLKK; REGION 1..4: note = epitope) [compound 1758]
epitope sequence binding to IgE antibody, rank (Key/Preferably/More preferably) (serum of patient P14 (WDEIA)): Key

2287 (KRVIERFEK; REGION 1..9: note = epitope) [compound 2287]
Epitope sequence binding to IgE antibody, rank of the sequence (Key/Preferably/More preferably) (serum of patient P26 (WDEIA), sequence without X): Key

2380 (DRCAYVTEIV; REGION 1..10: note = epitope) [compound 2380]
Epitope sequence binding to IgE antibody, rank of the sequence (Key/Preferably/More preferably) [1]: Key

1390 (PWQQQ; REGION 1..5: note = epitope) [compound 1390]
Epitope sequence binding to IgE antibody, rank of the sequence (serum of patient P15 (WDEIA), sequence without X): Key

1551 (QQQQFLGQ; REGION 1..8: note = epitope) [compound 1551]
Rank of partial sequence as epitope binding to IgE antibody [2]: Preferably

1737 (KEAANFT; REGION 1..7: note = epitope) [compound 1737]
epitope sequence binding to IgE antibody, rank (Key/Preferably/More preferably) (serum of patient P57 (child, general immediate type allergy to wheat)): Preferably

1878 (TVRTLQRT; REGION 1..8: note = epitope) [compound 1878]
epitope sequence binding to IgE antibody, rank (Key/Preferably/More preferably) (serum of patient P32 (WDEIA)): Preferably

2721 (GIGTVPVG; REGION 1..8: note = epitope) [compound 2721]
Epitope sequence binding to IgE antibody, rank of the sequence (serum of patient P25 (WDEIA), partial sequence): Key

1556 (LVQQQ; REGION 1..5: note = epitope) [compound 1556]
Rank of partial sequence as epitope binding to IgE antibody [3]: Key

1642 (YNPD; REGION 1..4: note = epitope) [compound 1642]
Rank of partial sequence as epitope binding to IgE antibody [3]: Key

2616 (AKPLL; REGION 1..5: note = epitope) [compound 2616]
Epitope sequence binding to IgE antibody, rank of the sequence (serum of patient P24 (WDEIA), partial sequence): Key

2610 (LQQSTYQLV; REGION 1..9: note = epitope) [compound 2610]
Epitope sequence binding to IgE antibody, rank of the sequence [4]: Key

1804 (KFLKN; REGION 1..5: note = epitope) [compound 1804]
epitope sequence binding to IgE antibody, rank (Key/Preferably/More preferably) (serum of patient P18 (WDEIA)): Key

2549 (QLVQQLCC; REGION 1..8: note = epitope) [compound 2549]
Epitope sequence binding to IgE antibody, rank of the sequence [5]: Key

1846 (TVRTLQR; REGION 1..7: note = epitope) [compound 1846]
epitope sequence binding to IgE antibody, rank (Key/Preferably/More preferably) (serum of patient P12 (WDEIA)): Key

2528 (SSQVSF; REGION 1..6: note = epitope) [compound 2528]
Epitope sequence binding to IgE antibody, rank of the sequence (serum of patient G2 (adult, general immediate type allergy to wheat), partial sequence): Key

1712 (EAANF; REGION 1..5: note = epitope) [compound 1712]
epitope sequence binding to IgE antibody, rank (Key/Preferably/More preferably) (serum of patient P34 (WDEIA)): Key

1548 (QVPLVQQQ; REGION 1..8: note = epitope) [compound 1548]
Rank of partial sequence as epitope binding to IgE antibody [2]: Preferably

1945 (FPGQQ; REGION 1..5: note = epitope) [compound 1945]
epitope sequence binding to IgE antibody, rank (Key/Preferably/More preferably) (serum of patient P22 (WDEIA)): Preferably

2714 (GIGTVPVGRV; REGION 1..10: note = epitope) [compound 2714]
Epitope sequence binding to IgE antibody, rank of the sequence (serum of patient P17 (WDEIA), partial sequence): Key

1799 (KFLK; REGION 1..4: note = epitope) [compound 1799]
epitope sequence binding to IgE antibody, rank (Key/Preferably/More preferably) (serum of patient P15 (WDEIA)): Key

1838 (RTLQ; REGION 1..4: note = epitope) [compound 1838]
epitope sequence binding to IgE antibody, rank (Key/Preferably/More preferably) (serum of patient P3 (WDEIA)): Key

1858 (RTLQ; REGION 1..4: note = epitope) [compound 1858]
epitope sequence binding to IgE antibody, rank (Key/Preferably/More preferably) (serum of patient P18 (WDEIA)): Key

2379 (HDIDRCAY; REGION 1..8: note = epitope) [compound 2379]
Epitope sequence binding to IgE antibody, rank of the sequence (Key/Preferably/More preferably) [1]: Key

1226 (PIQQQP; REGION 1..6: note = epitope) [compound 1226]
Epitope sequence binding to IgE antibody, rank of the sequence (serum of patient P12 (WDEIA), sequence without X): Key

2274 (DKRVIERFEK; REGION 1..10: note = epitope) [compound 2274]
Epitope sequence binding to IgE antibody, rank of the sequence (Key/Preferably/More preferably) (serum of patient P8 (WDEIA), sequence without X): Preferably

1760 (EVSSYLKKV; REGION 1..9: note = epitope) [compound 1760]
epitope sequence binding to IgE antibody, rank (Key/Preferably/More preferably) (serum of patient P18 (WDEIA)): Key

2495 (FQPSQLNPQ; REGION 1..9: note = epitope) [compound 2495]
Epitope sequence binding to IgE antibody, rank of the sequence [5]: Key

2315 (IIYS; REGION 1..4: note = epitope) [compound 2315]
Epitope sequence binding to IgE antibody, rank of the sequence (Key/Preferably/More preferably) [6]: Key

1701 (EAANFT; REGION 1..6: note = epitope) [compound 1701]
Rank of partial sequence as epitope binding to IgE antibody [6]: Key

2304 (DKRVIERFE; REGION 1..9: note = epitope) [compound 2304]
Epitope sequence binding to IgE antibody, rank of the sequence (Key/Preferably/More preferably) (serum of patient G7 (adult, general immediate type allergy to wheat), sequence without X): Key

2630 (LASLSK; REGION 1..6: note = epitope) [compound 2630]
Epitope sequence binding to IgE antibody, rank of the sequence [4]: Key

2236 (IRNYRVAI; REGION 1..8: note = epitope) [compound 2236]
Epitope sequence binding to IgE antibody, rank of the sequence (Key/Preferably/More preferably) (serum of patient P30 (WDEIA), sequence without X): Preferably

1768 (VSSYLKK; REGION 1..7: note = epitope) [compound 1768]
epitope sequence binding to IgE antibody, rank (Key/Preferably/More preferably) (serum of patient P35 (WDEIA)): Key

Reference: patent US20240393292A1, “ALLERGY ANTIGEN AND EPITOPE THEREOF” (HOYU CO., LTD., priority 2019, published 2024)
